From patent US9393221B2, “Methods and compounds for reducing intracellular lipid storage” (THE GENERAL HOSPITAL CORPORATION, priority 2011, dated 2016)
Structures can show the parent of a compound that is named as a salt.

The compounds below were run on ATGL-KO iPSCs (assay: High throughput iPSC chemical screening, Oil Red O (ORO) lipid accumulation). Conditions: not given.
Format: cell-based, mouse
Wherever Z-score is given: test concentration or dose not given here.

Row | Structure (SMILES) | Z-score
1 | CC(C)c1cccc(C(C)C)c1O [Propofol] | −0.9649

Same assay, conditions: glycolytic switch compounds

Row | Structure (SMILES) | Rank in normalized ORO score from screen
2 | Clc1ccc(C(Cn2ccnc2)OCc2csc3c(Cl)cccc23)c(Cl)c1 (centres unmarked) [Sertaconazole nitrate] | 464

Same assay, conditions: normalized ORO level vs DMSO-treated cells; compound present during 7 days differentiation, 96-well; negative = decrease in lipid accumulation

Row | Structure (SMILES) | Z-score
3 | CCCNCC(O)COc1ccccc1C(=O)CCc1ccccc1 (centres unmarked) [Propafenone hydrochloride] | −0.6438
4 | CC(C)[N+](C)(CCOC(=O)C1c2ccccc2Oc2ccccc21)C(C)C [Propantheline bromide] | −0.9862
5 | CCCOc1ccc(C(=O)OCCN(CC)CC)cc1N [Proparacaine hydrochloride] | 0.9367
6 | CC[N+](C)(CC)CCC[n+]1c(-c2ccccc2)c2cc(N)ccc2c2ccc(N)cc21.[I-].[I-] [Propidium iodide] | 4.014
7 | CCCOc1cc(N)ccc1C(=O)OCCN(CC)CC [Propoxycaine hydrochloride] | −0.3049
8 | CC(C)NCC(O)COc1cccc2ccccc12 (centres unmarked) [Propranolol hydrochloride] | 2.05
9 | CCCc1cc(=O)[nH]c(=S)[nH]1 [Propylthiouracil] | −0.0857
10 | C[C@@H]1O[C@@H](O[C@@H]2C=C3CC[C@@H]4[C@H](CC[C@]5(C)[C@@H](c6ccc(=O)oc6)CC[C@]45O)[C@@]3(C)CC2)[C@H](O)[C@H](O)[C@H]1O [Proscillaridin A] | −1.0698
11 | CC[C@@H](C)C(=O)O[C@H]1[C@H](O)[C@H]2[C@@H](CN3C[C@@H](C)CC[C@H]3[C@@]2(C)O)[C@@H]2C[C@]34O[C@]5(O)[C@@H](OC(=O)[C@@](C)(O)CC)CC[C@@]3(C)[C@@H]5[C@@H](OC(C)=O)[C@@H](OC(C)=O)[C@H]4[C@@]21O [Protoveratrine A] | 1.895
12 | CNCCCC1c2ccccc2C=Cc2ccccc21 [Protriptyline hydrochloride] | −0.1298
13 | CC(O)Cn1cnc2c1c(=O)n(C)c(=O)n2C (centres unmarked) [Proxyphylline] | −0.7317
14 | CN1[C@@H]2CCC[C@H]1CC(=O)C2.Cl [Pseudopelletierine hydrochloride] | 0.1911
15 | COc1ccc(C[C@H](N)C(=O)N[C@H]2[C@@H](O)[C@H](n3cnc4c(N(C)C)ncnc43)O[C@@H]2CO)cc1 [Puromycin dihydrochloride] | 74.4112
16 | NC(=O)c1cnccn1 [Pyrazinamide] | −1.0312
17 | Cc1ncc(CO)c(CO)c1O.Cl [Pyridoxine hydrochloride] | 1.366
18 | COc1ccc(CN(CCN(C)C)c2ccccn2)cc1 [Pyrilamine maleate] | −1.3015
19 | CCc1nc(N)nc(N)c1-c1ccc(Cl)cc1 [Pyrimethamine] | 2.959
20 | CCC1(CC)C(=O)C=CNC1=O [Pyrithyldione] | 0.5042
21 | O.O.O=c1c(O)c(-c2ccc(O)c(O)c2)oc2cc(O)cc(O)c12 [Quercetine dihydrate] | −0.8659
22 | CCN(CC)CCCC(C)Nc1c2ccc(Cl)cc2nc2ccc(OC)cc12 (centres unmarked) [Quinacrine dihydrochloride dihydrate] | 0.141
23 | CCC1NC(=O)c2cc(S(N)(=O)=O)c(Cl)cc2N1 (centres unmarked) [Quinethazone] | −0.4993
24 | O=C(O)[C@]1(O)C[C@@H](O)[C@@H](O)[C@H](O)C1 [Quinic acid] | 1.0976
25 | C=C[C@H]1C[N@@]2CC[C@H]1C[C@@H]2[C@@H](O)c1ccnc2ccc(OC)cc12 [Quinidine hydrochloride monohydrate] | 6.798

Row | Structure (SMILES) | Z-score
26 | CC(=O)SCC(Cc1ccccc1)C(=O)NCC(=O)OCc1ccccc1 (centres unmarked) [Racecadotril] | 0.516
27 | O=C(c1ccc(OCCN2CCCCC2)cc1)c1c(-c2ccc(O)cc2)sc2cc(O)ccc12 [Raloxifene hydrochloride] | −0.8574
28 | CCOC(=O)[C@H](CCc1ccccc1)N[C@@H](C)C(=O)N1[C@H](C(=O)O)C[C@@H]2CCC[C@@H]21 [Ramipril] | 1.188
29 | CNC(=C[N+](=O)[O-])NCCSCc1ccc(CN(C)C)o1 [Ranitidine hydrochloride] | −0.5642
30 | COC(=O)[C@H]1[C@H]2C[C@H]3c4[nH]c5ccccc5c4CCN3C[C@H]2CC[C@@H]1O [Rauwolscine hydrochloride] | −0.7161
31 | CCN1CCC[C@H]1CNC(=O)c1c(OC)ccc(Br)c1OC [Remoxipride Hydrochloride] | −0.4559
32 | CCOc1cc(CC(=O)N[C@@H](CC(C)C)c2ccccc2N2CCCCC2)ccc1C(=O)O [Repaglinide] | −0.2231
33 | COC(=O)[C@H]1[C@H]2C[C@@H]3c4[nH]c5cc(OC)ccc5c4CCN3C[C@H]2C[C@@H](OC(=O)/C=C/c2cc(OC)c(OC)c(OC)c2)[C@@H]1OC [Rescinnamin] | 1.097
34 | COC(=O)[C@H]1[C@H]2C[C@@H]3c4[nH]c5cc(OC)ccc5c4CCN3C[C@H]2C[C@@H](OC(=O)c2cc(OC)c(OC)c(OC)c2)[C@@H]1OC [Reserpine] | −0.083
35 | COc1ccc2c3c([nH]c2c1)[C@H]1C[C@H]2[C@H](C[C@@H](O)[C@H](OC)[C@H]2C(=O)O)CN1CC3.Cl [Reserpinic acid hydrochloride] | −1.3417
36 | Oc1ccc(C=Cc2cc(O)cc(O)c2)cc1 [Resveratrol] | 11.669
37 | CC1=C(/C=C/C(C)=C/C=C/C(C)=C/C(=O)O)C(C)(C)CCC1 [Retinoic acid] | −0.7042
38 | NC(=O)c1ncn([C@@H]2O[C@H](CO)[C@@H](O)[C@H]2O)n1 [Ribavirin] | −1.5081
39 | Cc1cc2nc3c(=O)[nH]c(=O)nc-3n(C[C@H](O)[C@H](O)[C@H](O)CO)c2cc1C [Riboflavine] | 0.1165
40 | NC[C@H]1O[C@H](O[C@H]2[C@H](O[C@@H]3O[C@H](CO)[C@@H](O)[C@H]3O)[C@@H](O)[C@H](N)C[C@@H]2N)[C@H](N)[C@@H](O)[C@@H]1O [Ribostamycin sulfate salt] | −0.4737
41 | COc1ccn(C)c(=O)c1C#N [Ricinine] | −1.4299
42 | CO[C@H]1/C=C/O[C@@]2(C)Oc3c(C)c(O)c4c(c3C2=O)C2=NC3(CCN(CC(C)C)CC3)NC2=C(NC(=O)/C(C)=C\C=C\[C@H](C)[C@H](O)[C@@H](C)[C@@H](O)[C@@H](C)[C@H](OC(C)=O)[C@@H]1C)C4=O [Rifabutin] | 1.521
43 | CO[C@H]1/C=C/O[C@@]2(C)Oc3c(C)c(O)c4c(O)c(c(/C=N/N5CCN(C)CC5)c(O)c4c3C2=O)NC(=O)/C(C)=C\C=C\[C@H](C)[C@H](O)[C@@H](C)[C@@H](O)[C@@H](C)[C@H](OC(C)=O)[C@@H]1C [Rifampicin] | −0.5227
44 | C1COC(NC(C2CC2)C2CC2)=N1 [Rilmenidine hemifumarate] | −1.0936
45 | CCC(=O)[C@@]1(C)[C@H](C)C[C@H]2[C@@H]3CCC4=CC(=O)C=C[C@]4(C)[C@H]3[C@@H](O)C[C@@]21C [Rimexolone] | −0.4134
46 | Cc1nc2n(c(=O)c1CCN1CCC(c3noc4cc(F)ccc34)CC1)CCCC2 [Risperidone] | −0.0533
47 | CC(NCCc1ccc(O)cc1)C(O)c1ccc(O)cc1 (centres unmarked) [Ritodrine hydrochloride] | 0.3787
48 | COc1ccc(C2CNC(=O)C2)cc1OC1CCCC1 (centres unmarked) [Rolipram] | −0.7794

Row | Structure (SMILES) | Z-score
49 | CN(C)[C@@H]1C(O)=C(C(=O)NCN2CCCC2)C(=O)[C@@]2(O)C(O)=C3C(=O)c4c(O)cccc4[C@@](C)(O)[C@H]3C[C@@H]12 [Rolitetracycline] | −0.3523
50 | Cn1c([N+](=O)[O-])cnc1COC(N)=O [Ronidazole] | 1.5256
51 | O=[N+]([O-])c1cc([As](=O)(O)O)ccc1O [Roxarsone] | −0.5936
52 | CC[C@H]1OC(=O)[C@H](C)[C@@H](O[C@H]2C[C@@](C)(OC)[C@@H](O)[C@H](C)O2)[C@H](C)[C@@H](O[C@@H]2O[C@H](C)C[C@H](N(C)C)[C@H]2O)[C@](C)(O)C[C@@H](C)/C(=N\OCOCCOC)[C@H](C)[C@@H](O)[C@]1(C)O [Roxithromycin] | −1.026
53 | CCN(CC)C(=O)N[C@H]1C[C@@H]2c3cccc4[nH]cc(c34)C[C@H]2N(C)C1.O=C(O)/C=C\C(=O)O [S(−)-terguride hydrogen maleate] | −1.0498
54 | CC(C)Cc1ccc([C@H](C)C(=O)O)cc1 [S-(+)-ibuprofen] | −1.4076
55 | c1ccc2c(c1)CCCc1cc(NCCN3CCOCC3)nnc1-2 [SR-95639A] | −0.7703
56 | CC(C)(C)NCC(O)c1ccc(O)c(CO)c1 (centres unmarked) [Salbutamol] | −0.9959
57 | OCc1cc(C(O)CNCCCCCCOCCCCc2ccccc2)ccc1O (centres unmarked) [Salmeterol] | 0.4502
58 | C[C@@H]1NCCc2cc(O)c(O)cc21 [Salsolinol hydrobromide] | 0.8772
59 | C[n+]1cc2c3c(ccc2c2ccc4cc5c(cc4c21)OCO5)OCO3 [Sanguinarine] | 31.0936
60 | CC(C)(C)NC(=O)[C@@H]1C[C@@H]2CCCC[C@@H]2CN1C[C@@H](O)[C@H](Cc1ccccc1)NC(=O)[C@H](CC(N)=O)NC(=O)c1ccc2ccccc2n1 [Saquinavir mesylate] | 1.027
61 | Br.C[N+]1([O-])[C@@H]2CC(OC(=O)[C@H](CO)c3ccccc3)C[C@H]1[C@@H]1O[C@@H]12 (some centres unmarked) [Scopolamin-N-oxide hydrobromide] | 0.9998
62 | CN1[C@@H]2C[C@@H](OC(=O)[C@H](CO)c3ccccc3)C[C@H]1[C@@H]1O[C@@H]12 [Scopolamine hydrochloride] | 0.9672
63 | COc1cc2ccc(=O)oc2cc1O [Scopoletin] | 0.6027
64 | COc1cc2c(cc1O)[C@@H]1Cc3ccc(OC)c(O)c3CN1CC2 [Scoulerine] | 19.9884
65 | O=C1C=C2C=C[C@@H]3C[C@@]2(O1)[C@H]1CCCCN31 [Securinine] | −0.5036
66 | C#CCN(C)[C@H](C)Cc1ccccc1 [Selegiline hydrochloride] | 2.279
67 | C=C1C/C(=C/C)C(=O)O[C@@H]2CCN3CC=C(COC(=O)[C@]1(C)O)[C@H]23 [Seneciphylline] | −1.7519
68 | NCCc1c[nH]c2ccc(O)cc12 [Serotonin hydrochloride] | −0.8664
69 | Clc1ccc(C(Cn2ccnc2)OCc2csc3c(Cl)cccc23)c(Cl)c1 (centres unmarked) [Sertaconazole nitrate] | −0.4658
70 | CN[C@H]1CC[C@@H](c2ccc(Cl)c(Cl)c2)c2ccccc21 [Sertraline hydrochloride] | −1.6299
71 | CCC(C)(C)C(=O)O[C@H]1C[C@@H](C)C=C2C=C[C@H](C)[C@H](CC[C@@H]3C[C@@H](O)CC(=O)O3)[C@H]21 [Simvastatin] | 15.173
